According to paper PMC5704298 (ACS Central Science, 2017):

Columns and labels:
[1] = system: ALK phosphorylation in NCI-H2228 and Karpas-299 cell lines; experiment: Immunoblot of ALK phosphorylation and downstream signaling; type: cell-based; conditions: 2 h, dose-dependent
[2] = system: patients without treatment with other ALK inhibitors; conditions: phase I study, 24 patients, cited from earlier work

## Cc1cc(Nc2ncc(Cl)c(Nc3ccccc3S(=O)(=O)C(C)C)n2)c(OC(C)C)cc1C1CCNCC1 [Ceritinib]
[1]
  autophosphorylation of ALK; phosphorylation of AKT and STAT3 (immunoblot): can inhibit autophosphorylation of ALK

## CN1CCN(c2ccc(C(=O)Nc3n[nH]c4ccc(Cc5cc(F)cc(F)c5)cc34)c(NC3CCOCC3)c2)CC1 [entrectinib]
[2]; ALK+
  ORR, ALK+ patients: 57%
[2]; NRTK1–3+
  ORR, NRTK1–3+ patients: 100%
[2]; ROS1+
  ORR, ROS1+ patients: 85%
